# In patent US9102678B2, “Compounds and methods for inhibiting mitotic progression” (Millennium Pharmaceuticals, Inc., priority 2004, dated 2015):
# pIC50: −log10 of the molar value.
# Target: T1, recombinant murine Aurora A enzyme (Mus musculus, UniProt P97477)
# T1 construct: hexahistidine (His6) (N); made in house; host or cells: insect cells, baculovirus (Bac-to-Bac, Invitrogen)
# Assay: Aurora A DELFIA Kinase Assay
# Assay type: biochemical
# Settings: not given
# T1 sequence (P97477 whole entry): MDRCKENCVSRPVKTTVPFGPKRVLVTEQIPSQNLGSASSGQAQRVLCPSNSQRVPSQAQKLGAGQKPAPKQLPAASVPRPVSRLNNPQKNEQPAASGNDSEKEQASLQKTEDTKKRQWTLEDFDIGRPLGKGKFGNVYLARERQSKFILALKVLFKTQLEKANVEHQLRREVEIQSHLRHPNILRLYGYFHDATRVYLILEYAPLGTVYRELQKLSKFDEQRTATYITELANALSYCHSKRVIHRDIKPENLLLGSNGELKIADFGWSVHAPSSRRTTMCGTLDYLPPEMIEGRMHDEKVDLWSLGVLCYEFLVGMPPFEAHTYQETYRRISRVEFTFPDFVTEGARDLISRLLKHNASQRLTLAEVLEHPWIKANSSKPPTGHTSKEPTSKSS
row,SMILES,pIC50
1,"CC1N=C(c2c(F)cccc2F)c2cc(Cl)ccc2-c2nc(Nc3ccc(C(=O)O)cc3)ncc21 (stereo not shown) [Compound I-371, 4-{[9-chloro-7-(2,6-difluorophenyl)-5-methyl-5H-pyrimido[5,4-d][2]benzazepin-2-yl]amino}benzoic acid]",≥ 7.00

# Same assay, conditions: mouse Aurora A, 250 μM ATP; threshold less than or equal to 100 nM; read-out: IC50
row,pIC50,SMILES
1,≥ 7.00,"CC1CN(C(=O)c2ccc(Nc3ncc4c(n3)-c3ccc(Cl)cc3C(c3c(F)cccc3Cl)=NC4)cc2)CCN1 (stereo not shown) [Compound I-323, 9-chloro-7-(2-chloro-6-fluorophenyl)-N-{4-[(3-methylpiperazin-1-yl)carbonyl]phenyl}-5H-pyrimido[5,4-d][2]benzazepin-2-amine]"
2,≥ 7.00,"CC1CN(C(=O)c2ccc(Nc3ncc4c(n3)-c3ccc(Cl)cc3C(c3c(F)cccc3Cl)=NC4)cc2)CC(C)N1 (stereo not shown) [Compound I-324, 9-chloro-7-(2-chloro-6-fluorophenyl)-N-{4-[(3,5-dimethylpiperazin-1-yl)carbonyl]phenyl}-5H-pyrimido[5,4-d][2]benzazepin-2-amine]"
3,≥ 7.00,"CNC1CCN(C(=O)c2ccc(Nc3ncc4c(n3)-c3ccc(Cl)cc3C(c3c(F)cccc3Cl)=NC4)cc2)CC1 [Compound I-325, 9-chloro-7-(2-chloro-6-fluorophenyl)-N-(4-{[4-(methylamino)piperidin-1-yl]carbonyl}phenyl)-5H-pyrimido[5,4-d][2]benzazepin-2-amine]"
4,≥ 7.00,"CNC1CCCN(C(=O)c2ccc(Nc3ncc4c(n3)-c3ccc(Cl)cc3C(c3c(F)cccc3Cl)=NC4)cc2)C1 (stereo not shown) [Compound I-326, 9-chloro-7-(2-chloro-6-fluorophenyl)-N-(4-{[3-(methylamino)piperidin-1-yl]carbonyl}phenyl)-5H-pyrimido[5,4-d][2]benzazepin-2-amine]"
5,≥ 7.00,"CNC1CCN(C(=O)c2ccc(Nc3ncc4c(n3)-c3ccc(Cl)cc3C(c3c(F)cccc3Cl)=NC4)cc2)C1 (stereo not shown) [Compound I-327, 9-chloro-7-(2-chloro-6-fluorophenyl)-N-(4-{[3-(methylamino)pyrrolidin-1-yl]carbonyl}phenyl)-5H-pyrimido[5,4-d][2]benzazepin-2-amine]"
6,≥ 7.00,"COc1ccccc1C1=NCc2cnc(Nc3ccc(C(=O)N4CCNC(C)C4)cc3)nc2-c2ccc(Cl)cc21 (stereo not shown) [Compound I-329, 9-chloro-7-(2-methoxyphenyl)-N-{4-[(3-methylpiperazin-1-yl)carbonyl]phenyl}-5H-pyrimido[5,4-d][2]benzazepin-2-amine]"
7,≥ 7.00,COc1ccccc1C1=NCc2cnc(Nc3ccc(C(=O)N4CC(C)NC(C)C4)cc3)nc2-c2ccc(Cl)cc21 (stereo not shown) [Compound I-330]
8,≥ 7.00,"CNC1CCN(C(=O)c2ccc(Nc3ncc4c(n3)-c3ccc(Cl)cc3C(c3ccccc3OC)=NC4)cc2)CC1 [Compound I-331, 9-chloro-7-(2-methoxyphenyl)-N-(4-{[4-(methylamino)piperidin-1-yl]carbonyl}phenyl)-5H-pyrimido[5,4-d][2]benzazepin-2-amine]"
9,≥ 7.00,"CNC1CCN(C(=O)c2ccc(Nc3ncc4c(n3)-c3ccc(Cl)cc3C(c3ccccc3OC)=NC4)cc2)C1 (stereo not shown) [Compound I-332, 9-chloro-7-(2-methoxyphenyl)-N-(4-{[3-(methylamino)pyrrolidin-1-yl]carbonyl}phenyl)-5H-pyrimido[5,4-d][2]benzazepin-2-amine]"
10,≥ 7.00,"CNC1CCCN(C(=O)c2ccc(Nc3ncc4c(n3)-c3ccc(Cl)cc3C(c3ccccc3OC)=NC4)cc2)C1 (stereo not shown) [Compound I-333, 9-chloro-7-(2-methoxyphenyl)-N-(4-{[3-(methylamino)piperidin-1-yl]carbonyl}phenyl)-5H-pyrimido[5,4-d][2]benzazepin-2-amine]"
11,≥ 7.00,"CNC(=O)c1ccc(Nc2ncc3c(n2)-c2ccc(Cl)cc2C(c2c(F)cccc2F)=NC3)cc1 [Compound I-334, 4-{[9-chloro-7-(2,6-difluorophenyl)-5H-pyrimido[5,4-d][2]benzazepin-2-yl]amino}-N-methylbenzamide]"
12,≥ 7.00,"CC(=O)c1ccc(Nc2ncc3c(n2)-c2ccc(Cl)cc2C(c2c(F)cccc2F)=NC3)cc1 [Compound I-337, 1-(4-{[9-chloro-7-(2,6-difluorophenyl)-5H-pyrimido[5,4-d][2]benzazepin-2-yl]amino}phenyl)ethanone]"
13,≥ 7.00,"NCC#Cc1cccc(Nc2ncc3c(n2)-c2ccc(Cl)cc2C(c2c(F)cccc2F)=NC3)c1 [Compound I-338, N-[3-(3-aminoprop-1-yn-1-yl)phenyl]-9-chloro-7-(2,6-difluorophenyl)-5H-pyrimido[5,4-d][2]benzazepin-2-amine]"
14,≥ 7.00,"CNC(=O)C1(N)CCN(C(=O)c2ccc(Nc3ncc4c(n3)-c3ccc(Cl)cc3C(c3c(F)cccc3F)=NC4)cc2)CC1 [Compound I-341, 4-amino-1-(4-{[9-chloro-7-(2,6-difluorophenyl)-5H-pyrimido[5,4-d][2]benzazepin-2-yl]amino}benzoyl)-N-methylpiperidine-4-carboxamide]"
15,≥ 7.00,"CN(C)CC#Cc1cccc(Nc2ncc3c(n2)-c2ccc(Cl)cc2C(c2c(F)cccc2F)=NC3)c1 [Compound I-343, 9-chloro-7-(2,6-difluorophenyl)-N-{3-[3-(dimethylamino)prop-1-yn-1-yl]phenyl}-5H-pyrimido[5,4-d][2]benzazepin-2-amine]"
16,≥ 7.00,"NC(=O)C1(N)CCN(C(=O)c2ccc(Nc3ncc4c(n3)-c3ccc(Cl)cc3C(c3c(F)cccc3F)=NC4)cc2)CC1 [Compound I-350, 4-amino-1-(4-{[9-chloro-7-(2,6-difluorophenyl)-5H-pyrimido[5,4-d][2]benzazepin-2-yl]amino}benzoyl)piperidine-4-carboxamide]"
17,≥ 7.00,"CNC1CN(C(=O)c2ccc(Nc3ncc4c(n3)-c3ccc(Cl)cc3C(c3c(F)cccc3Cl)=NC4)cc2)C1 [Compound I-351, 9-chloro-7-(2-chloro-6-fluorophenyl)-N-(4-{[3-(methylamino)azetidin-1-yl]carbonyl}phenyl)-5H-pyrimido[5,4-d][2]benzazepin-2-amine]"
18,≥ 7.00,"COc1cccc(Nc2ncc3c(n2)-c2ccc(C(=O)O)cc2C(c2c(F)cccc2F)=NC3)c1 [Compound I-353, 7-(2,6-difluorophenyl)-2-[(3-methoxyphenyl)amino]-5H-pyrimido[5,4-d][2]benzazepine-9-carboxylic acid]"
19,≥ 7.00,"CNC(=O)c1csc(Nc2ncc3c(n2)-c2ccc(Cl)cc2C(c2c(F)cccc2F)=NC3)n1 [Compound I-355, 2-{[9-chloro-7-(2,6-difluorophenyl)-5H-pyrimido[5,4-d][2]benzazepin-2-yl]amino}-N-methyl-1,3-thiazole-4-carboxamide]"
20,≥ 7.00,"Cc1csc(Nc2ncc3c(n2)-c2ccc(C(=O)O)cc2C(c2c(F)cccc2F)=NC3)n1 [Compound I-357, 7-(2,6-difluorophenyl)-2-[(4-methyl-1,3-thiazol-2-yl)amino]-5H-pyrimido[5,4-d][2]benzazepine-9-carboxylic acid]"
21,≥ 7.00,"CN(C)CCC(=O)c1cccc(Nc2ncc3c(n2)-c2ccc(Cl)cc2C(c2c(F)cccc2F)=NC3)c1 [Compound I-359, 1-(3-{[9-chloro-7-(2,6-difluorophenyl)-5H-pyrimido[5,4-d][2]benzazepin-2-yl]amino}phenyl)-3-(dimethylamino)propan-1-one]"
22,≥ 7.00,"CC1CN(C(=O)c2csc(Nc3ncc4c(n3)-c3ccc(Cl)cc3C(c3c(F)cccc3F)=NC4)n2)CC(C)N1 (stereo not shown) [Compound I-362, 9-chloro-7-(2,6-difluorophenyl)-N-{4-[(3,5-dimethylpiperazin-1-yl)carbonyl]-1,3-thiazol-2-yl}-5H-pyrimido[5,4-d][2]benzazepin-2-amine]"
23,≥ 7.00,"C[C@@H]1CN(C(=O)c2csc(Nc3ncc4c(n3)-c3ccc(Cl)cc3C(c3c(F)cccc3F)=NC4)n2)CCN1 [Compound I-365, 9-chloro-7-(2,6-difluorophenyl)-N-(4-{[(3R)-3-methylpiperazin-1-yl]carbony}-1,3-thiazol-2-yl)-5H-pyrimido[5,4-d][2]benzazepin-2-amine]"
24,≥ 7.00,"C[C@@H]1CNCCN1C(=O)c1ccc(Nc2ncc3c(n2)-c2ccc(Cl)cc2C(c2c(F)cccc2F)=NC3)cc1 [Compound I-366, 9-chloro-7-(2,6-difluorophenyl)-N-(4-{[(2R)-2-methylpiperazin-1-yl]carbonyl}phenyl)-5H-pyrimido[5,4-d][2]benzazepin-2-amine]"
25,≥ 7.00,"CNC1CCN(C(=O)c2csc(Nc3ncc4c(n3)-c3ccc(Cl)cc3C(c3c(F)cccc3F)=NC4)n2)C1 (stereo not shown) [Compound I-367, 9-chloro-7-(2,6-difluorophenyl)-N-(4-{[3-(methylamino)pyrrolidin-1-yl]carbonyl}-1,3-thiazol-2-yl)-5H-pyrimido[5,4-d][2]benzazepin-2-amine]"
26,≥ 7.00,"O=C(O)c1coc(Nc2ncc3c(n2)-c2ccc(Cl)cc2C(c2c(F)cccc2F)=NC3)n1 [Compound I-368, 2-{[9-chloro-7-(2,6-difluorophenyl)-5H-pyrimido[5,4-d][2]benzazepin-2-yl]amino}-1,3-oxazole-4-carboxylic acid]"
27,≥ 7.00,"CN(C)CCCc1cccc(Nc2ncc3c(n2)-c2ccc(Cl)cc2C(c2c(F)cccc2F)=NC3)c1 [Compound I-372, 9-chloro-7-(2,6-difluorophenyl)-N-{3-[3-(dimethylamino)propyl]phenyl}-5H-pyrimido[5,4-d][2]benzazepin-2-amine]"
28,≥ 7.00,"NCCCc1cccc(Nc2ncc3c(n2)-c2ccc(Cl)cc2C(c2c(F)cccc2F)=NC3)c1 [Compound I-373, N-[3-(3-aminopropyl)phenyl]-9-chloro-7-(2,6-difluorophenyl)-5H-pyrimido[5,4-d][2]benzazepin-2-amine]"
29,≥ 7.00,"CC1CN(C(=O)c2coc(Nc3ncc4c(n3)-c3ccc(Cl)cc3C(c3c(F)cccc3F)=NC4)n2)CC(C)N1 (stereo not shown) [Compound I-374, 9-chloro-7-(2,6-difluorophenyl)-N-[4-[(3,5-dimethylpiperazin-1-yl)carbonyl]-1,3-oxazol-2-yl]-5H-pyrimido[5,4-d][2]benzazepin-2-amine]"
30,≥ 7.00,"CNC1CCN(C(=O)c2coc(Nc3ncc4c(n3)-c3ccc(Cl)cc3C(c3c(F)cccc3F)=NC4)n2)C1 (stereo not shown) [Compound I-375, 9-chloro-7-(2,6-difluorophenyl)-N-(4-{[3-(methylamino)pyrrolidin-1-yl]carbonyl}-1,3-oxazol-2-yl)-5H-pyrimido[5,4-d][2]benzazepin-2-amine]"
